Assay results taken from patent publication US7307063B2, “Melanocortin metallopeptides for treatment of sexual dysfunction” (Palatin Technologies, Inc., priority 2001, dated 2007).
Non-standard residues stand in square brackets, D forms with d. Nle = CCCC[C@H](N)C(=O)O

How the values were obtained:
hMC5-R = target: T1, hMC5-R (Homo sapiens, UniProt P33032); test: Competitive binding assay: inhibition of 125I-NDP-α-MSH binding to HEK-293 membranes with cloned human receptor subtype 5; conditions: Table 1
T1 construct: expressed in transfected cells; host or cells: HEK-293
T1 sequence (P33032 whole entry): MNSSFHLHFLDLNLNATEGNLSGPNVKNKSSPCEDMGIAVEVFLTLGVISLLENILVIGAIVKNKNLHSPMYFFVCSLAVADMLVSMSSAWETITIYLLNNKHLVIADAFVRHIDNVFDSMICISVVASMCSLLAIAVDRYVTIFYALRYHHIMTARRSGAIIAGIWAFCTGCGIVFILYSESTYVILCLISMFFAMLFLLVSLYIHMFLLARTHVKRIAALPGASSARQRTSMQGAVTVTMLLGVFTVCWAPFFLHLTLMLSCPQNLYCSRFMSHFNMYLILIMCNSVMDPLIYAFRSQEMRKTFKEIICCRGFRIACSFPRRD
In short: (§1)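 Rhenium-complexed metallopeptides at a chosen single concentration competed with 125I-NDP-α-MSH on membranes of HEK-293 expressing cloned human MC receptors or, for MC1-R, B16-F10 mouse melanoma cells. Percent inhibition normalized to specific binding (nonspecific defined with 1 μM α-MSH); means of triplicates.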

Male Sprague-Dawley rats [1] = test: Combination penile erection behavior studies: antagonist IV before IN agonist; assay type: in vivo, rat; conditions: effect induced by 50 µg/kg intranasal Ac-Nle-cyclo(-Asp-His-D-Phe-Arg-Trp-Lys)-OH;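 on Mean Penile Erections/Rat: Erections counted over 30 min observation after IN dosing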;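 on Percent with Penile Erections: Erections counted over 30 min observation after IN dosing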
MC1-R [2] = target: T2, MC1-R (Mus musculus, UniProt Q01727); test: Competitive binding assay: inhibition of 125I-NDP-α-MSH binding to membranes from B16-F10 mouse melanoma cells; conditions: Table 1
T2 construct: MC1-R membranes were isolated from B16—F10 mouse melanoma cells; endogenous in cells; host or cells: B16-F10 mouse melanoma cells
T2 sequence (Q01727 whole entry): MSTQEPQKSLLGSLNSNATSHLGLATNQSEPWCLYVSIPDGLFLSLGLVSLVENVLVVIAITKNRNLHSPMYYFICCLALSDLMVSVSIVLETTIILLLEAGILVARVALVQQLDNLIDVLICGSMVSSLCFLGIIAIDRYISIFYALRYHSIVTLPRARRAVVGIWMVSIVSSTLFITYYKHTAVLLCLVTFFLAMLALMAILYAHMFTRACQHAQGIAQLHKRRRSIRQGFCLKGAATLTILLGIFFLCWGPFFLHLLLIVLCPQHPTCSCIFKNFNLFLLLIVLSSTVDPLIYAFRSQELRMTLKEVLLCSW
In short: as §1

hMC3-R = target: T3, hMC3-R (Homo sapiens, UniProt P41968); test: Competitive binding assay: inhibition of 125I-NDP-α-MSH binding to HEK-293 membranes with cloned human receptor subtype 3; conditions: Table 1
T3 construct: expressed in transfected cells; host or cells: HEK-293
T3 sequence (P41968 whole entry): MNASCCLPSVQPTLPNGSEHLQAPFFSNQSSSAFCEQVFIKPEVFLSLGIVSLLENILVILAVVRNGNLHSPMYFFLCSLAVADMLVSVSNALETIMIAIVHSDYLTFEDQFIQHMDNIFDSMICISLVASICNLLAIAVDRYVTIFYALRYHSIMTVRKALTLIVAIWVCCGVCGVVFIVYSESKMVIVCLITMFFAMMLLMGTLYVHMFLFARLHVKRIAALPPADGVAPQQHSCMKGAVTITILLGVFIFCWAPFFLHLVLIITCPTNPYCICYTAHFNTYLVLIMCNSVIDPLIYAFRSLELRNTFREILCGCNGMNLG
Procedure: Rhenium-complexed metallopeptides of the formulas given in Table 1 were prepared, with the metallopeptides complexed with rhenium using the rhenium transfer agent ReOCl3(PPh3)2 in the presence of 1,8-Diazabicyclo[5,4,0] undec-7-ene as a base, as disclosed in International Application PCT/US00/16396, filed Jun. 14, 2000, Melanocortin Metallopeptide Constructs, Combinatorial Libraries and Applications, incorporated by reference herein. Affinities of compounds were measured using membranes from HEK-293 cells containing cloned human melanocortin receptor subtypes 3, 4 and 5. MC1-R membranes were isolated from B16—F10 mouse melanoma cells. The assay tube also contained a chosen concentration of the test peptide of this invention, complexed to a rhenium metal ion as indicated, for determining its efficacy in inhibiting the binding of ^125I-NDP-α-MSH to its receptor. Non-specific binding was measured by complete inhibition of binding of ^125I-NDP-α-MSH in the assay with the presence of 1 μM α-MSH. 100% specific binding was defined as the difference in radioactivity (cpm) bound to cell membranes in the absence and presence of 1 μM α-MSH. The cpm obtained in presence of test compounds were normalized with respect to 100% specific binding to determine the percent inhibition of ^125I-NDP-α-MSH binding.

Male Sprague-Dawley rats [3] = test: Penile erection behavior dose response animal studies; assay type: in vivo, rat; conditions: for Mean Penile Erections/Rat: 30 min observation; for Induction of penile erections (PEs) in rat model, in words: rats, IV
Procedure: For behavioral experiments test solutions of rhenium-complexed metallopeptides were freshly prepared in DMSO and diluted in saline. Male Sprague-Dawley rats (Taconic) weighing 200-250 g were kept on a 12 hour on/off light cycle with food and water ad libitum. All behavioral studies were performed between 10 a.m. and 5 p.m. Groups of 3-10 rats were treated with the rhenium-complexed metallopeptides at a variety of doses via intravenous (IV) injection. In a second experimental paradigm, rats were treated a selected compound intranasally (IN) using a micropipet to deliver 25 μl of solution into one nostril. Immediately after treatment, rats were placed into individual Lucite cages (27 cm long, 16 cm wide and 25 cm high) for behavioral observation.

MC4-R [4] = target: T4, MC4-R (Homo sapiens, UniProt P32245); test: Competitive binding assay: inhibition of 125I-NDP-α-MSH binding to HEK-293 membranes with cloned human receptor subtype 4; conditions: Table 1
T4 construct: expressed in transfected cells; host or cells: HEK-293
T4 sequence (P32245 whole entry): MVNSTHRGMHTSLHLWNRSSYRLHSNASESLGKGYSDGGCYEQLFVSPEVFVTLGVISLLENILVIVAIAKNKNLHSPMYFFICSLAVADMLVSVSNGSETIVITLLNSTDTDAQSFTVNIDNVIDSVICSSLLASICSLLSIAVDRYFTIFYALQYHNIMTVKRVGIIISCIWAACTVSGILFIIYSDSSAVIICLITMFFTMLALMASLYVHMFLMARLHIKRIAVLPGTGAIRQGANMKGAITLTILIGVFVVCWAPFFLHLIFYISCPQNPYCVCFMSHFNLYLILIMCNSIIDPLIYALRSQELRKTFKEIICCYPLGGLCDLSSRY
In short: as §1

MC4-R [5] = target: T4, MC4-R; test: Functional activity assay: intracellular cAMP in HEK-293 cells expressing MC4-R; assay type: cell-based; conditions: Re-complexed peptide
Procedure: (§2) Rhenium-complexed metallopeptides were prepared, with functional evaluation of peptides at MC1-R and MC4-R performed by measuring the accumulation of intracellular cAMP in HEK-293 cells expressing MC4-R or B16-F10 mouse melanoma cells expressing MC1-R. Antagonistic activity was determined by measuring the inhibition of α-MSH-induced cAMP levels following exposure to peptide. Cells, suspended in Earle's Balanced Salt Solution containing 10 mM HEPES, pH 7.5, 5 mM MgCl2, 1 mM glutamine, 0.1% albumin and 0.6 mM 3-isobutyl-1-methyl-xanthine, a phosphodiesterase inhibitor, were plated in 96 well plates at a density of 0.5×10^5 cells per well. Cells were incubated with the test peptides in the presence or absence of α-MSH for 1 hour at 37° C. cAMP levels were measured by EIA (Amersham) in the cell lysates. Data analysis and EC50 values were determined using nonlinear regression analysis with Prism Graph-Pad software.

MC1-R [6] = target: T2, MC1-R; test: Functional activity assay: intracellular cAMP in B16-F10 mouse melanoma cells expressing MC1-R; assay type: cell-based; conditions: Re-complexed peptide
Procedure: as §2

Male Sprague-Dawley rats [7] = test: Combination penile erection behavior studies: antagonist IV before IN agonist; assay type: in vivo, rat;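 on Mean Penile Erections/Rat: Erections counted over 30 min observation after IN dosing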;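 on Percent with Penile Erections: Erections counted over 30 min observation after IN dosing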
Procedure: Conditions were as in Example 3 except as noted. Groups of 5-6 rats received an IV dose of either placebo or antagonist 5 minutes prior to an IN dose of either placebo or agonist. Two antagonists were used: ReO[Heptanoyl-Ser(Bzl)-D-Nal 2′-Arg-Trp-Cys-NH2] and SHU9119 (Hruby V J, Lu D, Sharma S D, et al. J Med Chem 38:3454-3461 (1995)), Ac-Nle-cyclo(-Asp-His-D-Nal 2′-Arg-Trp-Lys)-NH2. The agonist used was Ac-Nle-cyclo(-Asp-His-D-Phe-Arg-Trp-Lys)-OH. Immediately after IN treatment, rats were placed into individual Lucite cages for observation. […] In combination studies, the antagonist was dosed IV 5 minutes prior to a 50 μg/kg IN dose of Ac-Nle-cyclo(-Asp-His-D-Phe-Arg-Trp-Lys)-OH.
These studies were conducted as described above in Example 4 with metallopeptide antagonists administered IV five minutes before IN administration of 50 μg/kg Ac-Nle-cyclo(-Asp-His-D-Phe-Arg-Trp-Lys)-OH. […] The potency of these antagonists also correlated with their relative binding affinities in the in vitro binding assays.

[8] = combination: antagonist 200 μg/kg IV 5 min prior to 50 μg/kg IN Ac-Nle-cyclo(-Asp-His-D-Phe-Arg-Trp-Lys)-OH

Substance | % Inhibition of Binding hMC5-R (hMC5-R; 1 μM Re-complexed peptide) | Percent PE Inhibition (Male Sprague-Dawley rats [1]; antagonist 100 μg/kg IV) | Percent PE Inhibition (Male Sprague-Dawley rats [1]; antagonist 150 μg/kg IV) | % Inhibition of Binding MC1-R (MC1-R [2]; 1 μM Re-complexed peptide) | % Inhibition of Binding hMC3-R (hMC3-R; 1 μM Re-complexed peptide) | Mean Penile Erections/Rat (Male Sprague-Dawley rats [3]; IV 150 μg/kg) | Induction of penile erections (PEs) in rat model, in words (Male Sprague-Dawley rats [3]) | % Inhibition of Binding hMC4-R (MC4-R [4]; 1 μM Re-complexed peptide) | Functional activity at MC4-R (cAMP accumulation; inhibition of α-MSH-induced cAMP) (MC4-R [5]) | Percent PE Inhibition (Male Sprague-Dawley rats [1]; antagonist 200 μg/kg IV) | other results
D-(N-Bzl)Nal 2′-Arg-Trp-Cys-NH2 | 95% | 14.28% | 100% | 34% | 51% | 0 | inactive in inducing PEs | 99% | MC4-R antagonists | – | –
Ac-Nle-Ala-His-D-Phe-Arg-Cys-Trp-NH2 ({Ac-Nle-Ala-H2N}-[dF]RCW-NH2; also: ReO complex) | – | – | – | – | – | – | inactive in inducing PEs | – | – | – | % Inhibition of Binding hMC5-R (hMC5-R; 10 μM Re-complexed peptide): 22%; Functional activity at MC1-R (cAMP accumulation) (MC1-R [6]): MC1-R specific agonist; % Inhibition of Binding MC1-R (MC1-R [2]; 10 μM Re-complexed peptide): 97%; % Inhibition of Binding hMC3-R (hMC3-R; 10 μM Re-complexed peptide): 14%; Mean Penile Erections/Rat (Male Sprague-Dawley rats [3]; IV 10 μg/kg): 0; Mean Penile Erections/Rat (Male Sprague-Dawley rats [3]; IV 50 μg/kg): 0; % Inhibition of Binding hMC4-R (MC4-R [4]; 10 μM Re-complexed peptide): 29%
Heptanoyl-Ser(Bzl)-D-Nal 2′-Arg-D-Trp-Cys-NH2 | 60% | – | – | 1% | 6% | 0 | inactive in inducing PEs | 66% | MC4-R antagonists | 50% | Percent PE Inhibition (Male Sprague-Dawley rats [1]; antagonist 500 μg/kg IV): 40%
Heptanoyl-Ser(Bzl)-D-Nal 2′-Arg-Trp-Cys-NH2 | 98% | 14.28% | 50% | 19% | 64% | 0 | inactive in inducing PEs | 97% | MC4-R antagonists | 100% | Inhibitory effect on agonist-induced PE response, in words (Male Sprague-Dawley rats [7]; IV 0, 100, 150 and 200 μg/kg, FIG. 8): increased with dose; Mean Penile Erections/Rat (Male Sprague-Dawley rats [7]; antagonist alone, 200 μg/kg IV): 0; Percent with Penile Erections (Male Sprague-Dawley rats [7]; antagonist alone, 200 μg/kg IV): 0%; Mean Penile Erections/Rat (Male Sprague-Dawley rats [7]; [8]): 0; Percent with Penile Erections (Male Sprague-Dawley rats [7]; [8]): 0%; Effect on erectile behavior induced by Ac-Nle-cyclo(-Asp-His-D-Phe-Arg-Trp-Lys)-OH, in words (Male Sprague-Dawley rats [7]; rats, antagonist IV before IN agonist): blocked
